Like-named read-outs stand apart in the source and are kept apart here.
Legend:
ENPP1 [1] = target: T1, ENPP1 (Homo sapiens, UniProt P22413); experiment: ENPP1 enzyme assay with TMP-pNP substrate; type: biochemical; parameters: purchased R&D Systems; conditions: for Ki: Ki from IC50 by Cheng-Prusoff; for inhibition at 10 µM: read-out: TMP-pNP: % inhibition at 10 uM, 10 uM compound
T1 sequence (P22413 1-925): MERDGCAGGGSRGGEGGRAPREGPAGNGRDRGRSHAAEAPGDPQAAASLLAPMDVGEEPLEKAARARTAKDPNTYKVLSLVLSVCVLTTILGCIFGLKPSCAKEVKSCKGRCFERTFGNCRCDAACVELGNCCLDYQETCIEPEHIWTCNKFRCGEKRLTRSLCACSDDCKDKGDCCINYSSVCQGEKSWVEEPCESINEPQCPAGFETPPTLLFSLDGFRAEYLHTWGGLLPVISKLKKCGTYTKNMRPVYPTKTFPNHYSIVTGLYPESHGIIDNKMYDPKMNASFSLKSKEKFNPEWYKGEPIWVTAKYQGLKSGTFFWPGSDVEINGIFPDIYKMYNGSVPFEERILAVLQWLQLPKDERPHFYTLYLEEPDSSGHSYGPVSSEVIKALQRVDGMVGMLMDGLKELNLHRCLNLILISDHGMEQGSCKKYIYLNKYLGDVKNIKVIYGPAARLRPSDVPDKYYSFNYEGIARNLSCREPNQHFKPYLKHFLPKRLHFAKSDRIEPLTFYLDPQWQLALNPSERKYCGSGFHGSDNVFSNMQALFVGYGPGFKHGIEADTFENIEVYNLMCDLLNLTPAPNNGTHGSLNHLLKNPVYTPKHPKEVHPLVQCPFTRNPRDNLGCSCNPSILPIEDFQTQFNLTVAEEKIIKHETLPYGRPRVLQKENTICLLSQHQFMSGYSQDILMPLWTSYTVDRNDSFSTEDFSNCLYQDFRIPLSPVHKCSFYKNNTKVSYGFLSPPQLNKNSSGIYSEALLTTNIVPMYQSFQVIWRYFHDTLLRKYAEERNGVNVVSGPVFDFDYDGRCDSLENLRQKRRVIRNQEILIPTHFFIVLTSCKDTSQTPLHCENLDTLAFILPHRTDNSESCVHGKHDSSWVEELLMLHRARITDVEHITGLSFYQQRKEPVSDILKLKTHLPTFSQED
Experimental: Example B2: ENPP1 Enzyme Assay With TMP-pNP Substrate
Ectonucleotide pyrophosphatase/phosphodiesterase 1 (ENPP-1) is a transmembrane glycoprotein that hydrolyzes nucleotides and nucleotide derivatives with the formation of nucleotide-5’-monophosphates. ENPP-1 hydrolyzes thymidine 5’monophosphate p-nitrophenyl ester (TMP-pNP) to nucleotide-5’-monophosphate and p-nitrophenol, which is a chromogenic product. The amount of p-nitrophenol product formed is measured using its absorbance at 405 nm, which is directly proportional to enzyme activity. Different concentrations of inhibitors are pre-incubated with 15 ng/well of human ENPP-1 enzyme (R&D Systems) for 15 minutes at 37° C. The reaction is initiated by adding 200 µM TMP-pNP and incubating for 10 minutes at 37° C. The final assay reaction mixture contains a buffer of 50 mM Tris pH 8.0, 250 mM NaCl, 0.5 mM CaCl2, 1 µM ZnCl2 and 1% DMSO. The amount of product formed is measured directly in a Tecan® spectrophotometer. Maximal activity control samples (containing enzyme, substrate, and buffer in the absence of ENPP1 inhibitors: MAX) and background control samples (containing enzyme, substrate, and buffer plus a fully inhibitory concentration (3 µM) of the reference ENPP1 Inhibitor, Example 333: MIN) are simultaneously evaluated in order to calculate the percent inhibition at each compound concentration as follows:
The IC50 values for percent inhibition versus compound concentration are determined by fitting the inhibition curves (percent inhibition versus inhibitor concentration) using a four-parameter variable slope model in GraphPad Prism® software. Ki values are derived from the IC50 values using the Cheng-Prusoff equation: […]

ENPP1 [2] = target: T1, ENPP1; experiment: ENPP1 enzyme assay with AMP-pNP substrate (hydrolysis of ATP analog); type: biochemical
Method in brief: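 Reactions ran 20 min at 37 °C, pH 8.5 Tris buffer with NaCl, CaCl2, ZnCl2, using 300 µM AMP-pNP and 60 ng/well recombinant human ENPP1; inhibitor range 10 µM–30 pM, duplicates.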

ENPP1 [3] = target: T1, ENPP1; experiment: Indirect quantitation of 2',3'-cGAMP hydrolysis (AMP-Glo Assay kit); type: biochemical
ENPP1 [4] = target: T1, ENPP1; experiment: ENPP1 enzyme assay with cGAMP substrate (AMP-Glo); type: biochemical; parameters: purchased R&D Systems; conditions: for inhibition at 1 µM: read-out: cGAMP: % Inhibition at 1 µM
Description: Example B1: ENPP1 Enzyme Assay With cGAMP Substrate
Ectonucleotide pyrophosphatase/phosphodiesterase 1 (ENPP-1) is a transmembrane glycoprotein that hydrolyzes nucleotides and nucleotide derivatives with the formation of nucleoside-5’-monophosphates. […] The 5’-AMP formed from the reaction is detected using the AMP-Glo® Kit (Promega). The assay kit contains two reagents. The first reagent terminates the enzymatic reaction, removes ATP (using adenylyl cyclase), and converts 5’-AMP produced into ADP (using polyphosphate: AMP phosphotransferase). The second reagent converts ADP to ATP (using adenylate kinase) and generates light from ATP using the luciferin/luciferase reaction.
Different concentrations of ENPP1 inhibitors are pre-incubated with 5 ng/well of human ENPP-1 enzyme (R&D Systems) for 15 minutes at 37° C. The reaction is initiated by adding 20 µM 2’3’-cGAMP and incubating for 30 minutes at 37° C. The final assay reaction mixture contains a buffer of 50 mM Tris pH 8.0, 250 mM NaCl, 0.5 mM CaCl2, 1 µM ZnCl2 and 1% DMSO. At the end of the incubation, the reaction is stopped by adding 12 µl of AMP-Glo reagent-1 and mixing the reaction uniformly for 5 minutes, followed by incubation at room temperature for one hour. Then 25 µl of AMP Glo reagent-2 is added to the reaction, mixed uniformly with a pipette, and incubated at room temperature for one hour to convert the ADP formed from reagent-1 to ATP and light. The generated light is measured in a Perkin Elmer Victor® instrument.
The IC50 values for percent inhibition versus compound concentration are determined by fitting the inhibition curves using a four-parameter variable slope model in GraphPad Prism® software. Ki values are derived from the IC50 values using the Cheng-Prusoff equation: […]

ENPP1 [5] = target: T1, ENPP1; experiment: Substrate selectivity ratio, inhibition of cGAMP hydrolysis versus ATP hydrolysis; type: biochemical; conditions: ratio Ki AMP-pNP / Ki cGAMP
Experimental: The selectivity ratios for inhibition of cGAMP hydrolysis versus ATP hydrolysis were then calculated as follows: […]

IFN β gene transcription = experiment: IFNβ mRNA in cGAMP-stimulated human foreskin fibroblasts (HFF-1); type: cell-based; conditions: cGAMP-stimulated human foreskin fibroblast cells (HFF-1)
Experimental: Human Foreskin Fibroblasts
The cell line was sourced from ATCC (Cat# SCRC-1041). Cells were cultured in 15% fetal bovine serum-containing growth medium. They were seeded in a 48 well plate @ 100,000 per well (300 µL), and incubated for 1 hour at 37° C., 5% CO2. 100 µl of compound (0.05 µM to 5 µM final concentrations) was added 30 min prior to addition of cGAMP (12.5 µM & 25 µM final concentrations). The plate was incubated for 3 hrs at 37° C., 5% CO2. Cells were washed with PBS and 250 µl of RLT reagent (provided in the RNA isolation kit (RNeasy Mini kit, Qiagen Cat # 74106). was added to each well. RNA was isolated using this kit as per the given protocol. RNA was converted to cDNA using a Bio-Rad cDNA conversion kit (iScript® cDNA synthesis kit, Bio-Rad Cat #170-8891). IFN βgene transcription was quantitated using SYBR green dye in an RT-PCR instrument. The methods and protocol were the same as for PBMCs, except that Interferon mRNA levels were normalized to GAPDH mRNA.

IFNβ gene transcription = type: cell-based, human; conditions: 3, 6, and 19 hrs exposure; VACV-70 stimulated PBMCs
[6] = AMP-pNP substrate (ATP analog), Ki from IC50 by Cheng-Prusoff, read-out: ENPP1 Inhibition _AMP-pNP: Ki
[7] = cGAMP substrate, Ki from IC50 by Cheng-Prusoff, read-out: ENPP1 Inhibition -cGAMP: Ki
[8] = cGAMP substrate, Ki from IC50 by Cheng-Prusoff, read-out: cGAMP: Ki

Compound | Ki (ENPP1 [1]) | Ki (ENPP1 [2]; [6]) | Ki (ENPP1 [3]; [7]) | Ki (ENPP1 [4]; [8]) | Substrate Selectivity: Ki_AMP-pNP/Ki_cGAMP (ENPP1 [5]) | inhibition at 1 µM (ENPP1 [4]; 1 µM compound, cGAMP substrate) | other results
COc1cc2nc(N)nc(N3CCC(CCNS(N)(=O)=O)CC3)c2cc1OC [Example 1, N-(2-(1-(2-amino-6,7-dimethoxyquinazolin-4-yl)piperidin-4-yl)ethyl)sulfamide] | 100 to 1000 nM | 100 to 1000 nM | < 100 nM | < 100 nM | 41.7 | – | –
COc1cc2ncnc(NCc3ccc(NS(N)(=O)=O)cc3)c2cc1OC [Example 34, N-(4-(((6,7-dimethoxyquinazolin-4-yl)amino)methyl)phenyl) sulfamidetrifluoroacetate] | < 100 nM | 100 to 1000 nM | < 100 nM | < 100 nM | 17.4 | > 75% | –
Cn1cnc2ncnc(N3CCC(CCNS(N)(=O)=O)CC3)c21 [Example 22, N-(2-(1-(7-methyl-7H-purin-6-yl)piperidin-4-yl)ethyl)sulfamide] | > 1000 nM | > 1000 nM | < 100 nM | < 100 nM | >115 | – | –
COc1ccc2c(-c3ccc(CNS(N)(=O)=O)cc3)ccnc2c1 [Example 55, N-(4-(7-methoxyquinolin-4-yl)benzyl)sulfamide] | – | – | – | – | – | – | transcription of IFNβ (IFN β gene transcription): enhances transcription of IFNβ
COc1cc2nccc(N3CCC(CCNS(N)(=O)=O)CC3)c2cc1OC [Example 43, N-(2-(1-(6,7-dimethoxyquinolin-4-yl)piperidin-4-yl)ethyl)sulfamide] | < 100 nM | 100 to 1000 nM | < 100 nM | < 100 nM | 22.9 | > 75% | –
COc1cc2ncc(C#N)c(N3CCC4(CC3)CCN(S(N)(=O)=O)C4)c2cc1F [Example 57, 8-(3-cyano-6-fluoro-7-methoxyquinolin-4-yl)-2,8-diazaspiro[4.5]decane-2-sulfonamide] | – | < 100 nM | < 100 nM | – | 24.7 | – | transcription of IFNβ (IFN β gene transcription): enhances .transcription of IFNβ
COc1cc2ncc(C#N)c(N3CCC(CCNS(N)(=O)=O)CC3)c2cc1OC [Example 20, N-(2-(1-(3-cyano-6,7-dimethoxyquinolin-4-yl)piperidin-4-yl)ethyl)sulfamide] | < 100 nM | 100 to 1000 nM | < 100 nM | < 100 nM | 489 | > 75% | –
CNc1nc(N2CCC(CCNS(N)(=O)=O)CC2)c2cc(OC)c(OC)cc2n1 [Example 2, N-(2-(1-(6,7-dimethoxy-2-(methylamino)quinazolin-4-yl)piperidin-4-yl)ethyl)sulfamide] | – | > 1000 nM | < 100 nM | – | >39.0 | > 75% | inhibition at 10 µM (ENPP1 [1]): > 75%
COc1cc2ncnc(N3CCc4c(cccc4NS(N)(=O)=O)C3)c2cc1OC [Example 28, N-(2-(6,7-dimethoxyquinazolin-4-yl)-1,2,3,4-tetrahydroisoquinolin-5-yl)sulfamide] | 100 to 1000 nM | 100 to 1000 nM | < 100 nM | < 100 nM | 31.2 | – | –
COc1cc2ncnc(N3CCC4(CC3)CCN(S(N)(=O)=O)C4)c2cc1OC [Example 29, 8-(6,7-dimethoxyquinazolin-4-+yl)-2,8-diazaspiro[4.5]decane-2-sulfonamide] | < 100 nM | < 100 nM | < 100 nM | < 100 nM | 19.2 | – | inhibition at 10 µM (ENPP1 [4]; 10 µM compound, cGAMP substrate): > 75%
COc1cc2nc(-c3cccnc3)nc(N3CCC(CCNS(N)(=O)=O)CC3)c2cc1OC [Example 5, N-(2-(1-(6,7-dimethoxy-2-(pyridin-3-yl)quinazolin-4-yl)piperidin-4-yl)ethyl)sulfamide] | – | – | – | – | >24 | – | inhibition at 10 µM (ENPP1 [1]): 50 to 75%; Ki (ENPP1 [2]): > 1000 nM; Ki (ENPP1 [3]): 100 to 1000 nM; Ki (ENPP1 [4]): 100 to 1000 nM; inhibition at 1 µM (ENPP1 [4]): 50 to 75%
COc1cc2ncnc(-c3ccc4c(c3)CN(S(N)(=O)=O)CC4)c2cc1OC [Example 32, 7-(6,7-dimethoxyquinazolin-4-yl)-3,4-dihydroisoquinoline-2(1H)-sulfonamide] | – | < 100 nM | < 100 nM | – | 24.3 | > 75% | transcription of IFNβ (IFN β gene transcription): enhances transcription of IFNβ
COc1ccc2c(Oc3ccc(S(N)(=O)=O)cc3)ccnc2c1 [Example 58, 4-((7-methoxyquinolin-4-yl)oxy)benzenesulfonamide] | – | – | – | – | – | – | transcription of IFNβ (IFNβ gene transcription): enhances transcription of IFNβ

— patent publication US20230183239A1, “ECTONUCLEOTIDE PYROPHOSPHATASE-PHOSPHODIESTERASE 1 (ENPP-1) INHIBITORS AND USES THEREOF” (AbbVie Inc., priority 2017, published 2023)
